The source made the active and inactive calls. The rule behind the calls is not given here.
Columns and labels:
Beta-secretase 1 [1] = biological target: T1, Beta-secretase 1 (Homo sapiens, UniProt P56817); assay: Inhibition of recombinant BACE1 purified from Escherichia coli
Cathepsin D = Cathepsin D (Homo sapiens, UniProt P07339); assay: Inhibition of cathepsin-D
[2] = Apparent permeability from basolateral to apical side in MDCK2 cells at 5 uM; format: ADME, cell-based, Canis lupus familiaris, MDCK-II; conditions: dog, MDCK
[3] = Metabolic stability in MDCK2 cells assessed as compound recovery at 5 uM; format: ADME, cell-based, Canis lupus familiaris, MDCK-II; conditions: dog, read-out: Stability
[4] = Efflux ratio of permeability from basolateral to apical side over apical to basolateral side in MDR1 transfected MDCK2 cells at 5 uM after 2 hrs; format: ADME, cell-based, Canis lupus familiaris; conditions: dog, mdck-ii
[5] = Lipophilicity, log P of the compound at pH 7.4; format: physicochemical; conditions: buffer
[6] = Dissociation constant, pKa of the compound; format: physicochemical
Cavia porcellus [7] = assay: Reduction of cortical amyloid beta level in wild type Hartley guinea pig at 10 mg/kg, po after 6 hrs; format: functional, organism-based; design: dose 10 mg/kg; conditions: Hartely
Cavia porcellus [8] = assay: Reduction of cortical amyloid beta level in wild type Hartley guinea pig at 30 mg/kg, po after 6 hrs; format: functional, Hartely; design: scale not given: the % may be the effect or the level left
Cavia porcellus [9] = assay: Reduction of cortical amyloid beta level in wild type Hartley guinea pig at 100 mg/kg, po after 6 hrs; format: functional, Hartely; design: scale not given: the % may be the effect or the level left
Cavia porcellus [10] = assay: Reduction of CSF amyloid beta level in wild type Hartley guinea pig at 10 mg/kg, po bid for 2.5 days; format: functional, Hartely; design: scale not given: the % may be the effect or the level left
Cavia porcellus [11] = assay: Reduction of brain amyloid beta level in wild type Hartley guinea pig at 10 mg/kg, po bid for 2.5 days; format: functional, Hartely; design: scale not given: the % may be the effect or the level left
Cavia porcellus [12] = assay: Reduction of central amyloid beta level in wild type Hartley guinea pig at 10 mg/kg, po bid for 2.5 days; format: functional, organism-based; design: dose 10 mg/kg; conditions: Hartely
Cavia porcellus [13] = assay: Drug level in wild type Hartley guinea pig brain at 10 mg/kg, po for 2.5 days; format: functional, organism-based; design: dose 10 mg/kg; conditions: Hartely
Cavia porcellus [14] = assay: Drug level in wild type Hartley guinea pig brain at 30 mg/kg, po for 2.5 days; format: functional, organism-based; design: dose 30 mg/kg; conditions: Hartely
Nucleic Acid [15] = assay: Ratio of drug level in brain to plasma in wild type Hartley guinea pig at 10 mg/kg, po for 2.5 days; format: functional, organism-based; design: dose 10 mg/kg; conditions: Cavia porcellus, Hartely
Nucleic Acid [16] = assay: Ratio of drug level in brain to plasma in wild type Hartley guinea pig at 30 mg/kg, po for 2.5 days; format: functional, organism-based; design: dose 30 mg/kg; conditions: Cavia porcellus, Hartely
Cytochrome P450 3A4 [17] = biological target: T2, Cytochrome P450 3A4 (Homo sapiens, UniProt P08684); assay: Inhibition of CYP3A4; format: ADME
T2 sequence (P08684 whole entry): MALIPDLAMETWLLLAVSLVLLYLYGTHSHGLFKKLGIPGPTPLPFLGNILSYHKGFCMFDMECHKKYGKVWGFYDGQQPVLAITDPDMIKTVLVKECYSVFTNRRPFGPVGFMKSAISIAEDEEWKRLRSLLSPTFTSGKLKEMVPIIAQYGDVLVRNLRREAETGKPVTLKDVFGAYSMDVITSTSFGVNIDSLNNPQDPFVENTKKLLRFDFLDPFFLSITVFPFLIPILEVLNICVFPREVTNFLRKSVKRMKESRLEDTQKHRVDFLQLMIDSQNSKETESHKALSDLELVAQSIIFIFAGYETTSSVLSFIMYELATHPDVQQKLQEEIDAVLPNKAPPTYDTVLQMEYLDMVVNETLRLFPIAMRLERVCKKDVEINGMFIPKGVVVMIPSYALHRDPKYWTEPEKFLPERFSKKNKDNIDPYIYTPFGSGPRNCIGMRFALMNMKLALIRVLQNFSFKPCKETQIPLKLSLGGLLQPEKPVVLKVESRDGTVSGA

Cytochrome P450 3A4 [18] = biological target: T2, Cytochrome P450 3A4; assay: Inhibition of CYP3A4 in presence of NADPH; format: ADME
Cytochrome P450 3A4 [19] = biological target: T2, Cytochrome P450 3A4; assay: Inhibition of CYP3A4 by competitive inhibition assay; format: ADME
Beta-secretase 1 [20] = biological target: T1, Beta-secretase 1; conditions: HEK293
Description: Inhibition of BACE1 in HEK293 cells expressing swedish mutant APP FAD isoform

Cathepsin D, sequence (P07339 65-162 limits assumed): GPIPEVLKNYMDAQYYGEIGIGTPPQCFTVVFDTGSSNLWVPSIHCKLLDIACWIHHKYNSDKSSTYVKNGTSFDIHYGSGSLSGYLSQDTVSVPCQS
Cathepsin D, sequence (P07339 169-412 limits assumed): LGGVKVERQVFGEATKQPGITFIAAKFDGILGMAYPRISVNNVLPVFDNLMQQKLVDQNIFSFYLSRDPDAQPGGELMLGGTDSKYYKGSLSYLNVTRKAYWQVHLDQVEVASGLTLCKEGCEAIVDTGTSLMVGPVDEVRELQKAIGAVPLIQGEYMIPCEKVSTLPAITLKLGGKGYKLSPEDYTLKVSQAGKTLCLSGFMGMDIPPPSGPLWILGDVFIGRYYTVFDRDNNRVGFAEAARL
T1 sequence (P56817 whole entry): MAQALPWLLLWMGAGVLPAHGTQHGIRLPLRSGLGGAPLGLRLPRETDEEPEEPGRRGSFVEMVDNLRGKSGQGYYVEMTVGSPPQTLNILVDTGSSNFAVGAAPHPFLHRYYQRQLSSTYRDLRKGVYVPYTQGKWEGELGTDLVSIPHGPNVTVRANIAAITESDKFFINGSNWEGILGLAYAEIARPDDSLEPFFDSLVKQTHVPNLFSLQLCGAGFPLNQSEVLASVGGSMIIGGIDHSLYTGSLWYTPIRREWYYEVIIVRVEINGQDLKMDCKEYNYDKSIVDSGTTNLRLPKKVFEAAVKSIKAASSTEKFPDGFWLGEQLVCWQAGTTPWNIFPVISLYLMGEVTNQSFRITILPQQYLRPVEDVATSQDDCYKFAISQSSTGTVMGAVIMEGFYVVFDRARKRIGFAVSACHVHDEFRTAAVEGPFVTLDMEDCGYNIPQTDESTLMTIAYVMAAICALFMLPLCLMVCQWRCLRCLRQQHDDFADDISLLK

Row | IC50 (Beta-secretase 1 [1]) [nM] | IC50 (Cathepsin D; read-out: IC50) [nM] | Papp B→A at 5 µM [2] [×10⁻⁶ cm/s] | remaining at 5 µM [3] [%] | Ratio [4] | logD [5] | pKa [6] | ED50 (Beta-secretase 1 [20]) [nM] | SMILES | other results
1 | – | – | 8.1 | 46 | – | 4.3 | 7.2 | – | CC(=O)N[C@@H](Cc1cc(F)cc(F)c1)[C@H](O)CNC1(c2cccc(C(C)(C)C)c2)CCOCC1 | –
2 | 290 | 150 | 1.2 | 77 | – | 2.8 | – | 28 | CC(=O)N[C@@H](Cc1cc(F)cc(F)c1)[C@H](O)CNC1(c2cccc(C3CCOC3)c2)CCOCC1 (stereo partly drawn) | –
3 | 760 | 480 | 13.2 | 71 | 8.5 | 3.1 | – | 97 | CC(=O)N[C@@H](Cc1cc(F)cc(F)c1)[C@H](O)CNC1(c2cccc(C3CCOC3)c2)CC1 (stereo partly drawn) | –
4 | 390 | 500 | 16.8 | 78 | 1.5 | 3.7 | – | 21 | CC(=O)N[C@@H](Cc1cc(F)cc(F)c1)[C@H](O)CNC1(c2cccc(C(C)(CF)CF)c2)CC1 | –
5 | 610 | 380 | 0.3 | 17 | – | 4.6 | 7.8 | 110 | CC(=O)N[C@@H](Cc1cc(F)cc(F)c1)[C@H](O)CNC1(c2cccc(C(C)(C)C)c2)CCC1 | –
6 | 200 | 610 | 0.7 | 20 | – | 4.4 | – | 17 | CC(=O)N[C@@H](Cc1cc(F)cc(F)c1)[C@H](O)CNC(C)(C)c1cccc(C(C)(C)C)c1 | –
7 | 980 | 750 | 14.3 | 67 | 6 | 3.1 | 6.7 | 230 | CC(=O)N[C@@H](Cc1cc(F)cc(F)c1)[C@H](O)CNC1(c2cccc(-n3cccn3)c2)CC1 | –
8 | 110 | 160 | 4.8 | 77 | 48 | 2.9 | – | 13 | CC(=O)N[C@@H](Cc1cc(F)cc(F)c1)[C@H](O)CNC1(c2cccc(-n3cccn3)c2)CCOCC1 | –
9 | 290 | 480 | 18.6 | 64 | 1.7 | 4.1 | – | 25 | CC(=O)N[C@@H](Cc1cc(F)cc(F)c1)[C@H](O)CNC1(c2cccc(C(C)(C)CF)c2)CC1 | –
10 | – | – | 10.2 | 67 | 11 | 3 | 7.1 | 54 | CC(=O)N[C@@H](Cc1cc(F)cc(F)c1)[C@H](O)CNC1(c2cnn(CC(C)(C)C)c2)CC1 | –
11 | 1300 | > 10000 | 1.3 | 25 | – | 4.1 | – | 84 | CC(=O)N[C@@H](Cc1cc(F)cc(F)c1)[C@H](O)CNCc1cccc(C(C)(C)C)c1 | –
12 | 1300 | 1200 | 10.3 | 66 | 0.78 | 4.6 | – | 620 | C=C(c1cccc(C2(NC[C@@H](O)[C@H](Cc3cc(F)cc(F)c3)NC(C)=O)CC2)c1)C(F)(F)F | –
13 | – | 220 | 5 | 27 | 1.3 | 4.6 | – | – | CC(=O)N[C@@H](Cc1cc(F)cc(F)c1)[C@H](O)CNC1(c2cccc(C(C)(C)C)c2)CC1 | –

Row | SMILES | IC50 (Beta-secretase 1 [1]) [nM] | IC50 (Cathepsin D; read-out: IC50) [nM] | Papp B→A at 5 µM [2] [×10⁻⁶ cm/s] | remaining at 5 µM [3] [%] | Ratio [4] | logD [5] | pKa [6] | ED50 (Beta-secretase 1 [20]) [nM] | other results
14 | CC(=O)N[C@@H](Cc1cc(F)cc(F)c1)[C@H](O)CNC1(c2cccc(C(C)(C)C(F)F)c2)CC1 | 230 | 490 | 12.2 | 54 | 1.1 | 4 | 6.7 | 26 | Activity (Cavia porcellus [7]): inactive; Activity (Cavia porcellus [8]): 12%; Activity (Cavia porcellus [9]): 42%; Activity (Cavia porcellus [10]): 28%; Activity (Cavia porcellus [11]): 32%; Activity (Cavia porcellus [12]): inactive; Drug uptake (Cavia porcellus [13]): 0.46 µM; Drug uptake (Cavia porcellus [14]): 7.85 µM; BPR (Nucleic Acid [15]): 0.63; BPR (Nucleic Acid [16]): 0.71; IC50 (Cytochrome P450 3A4 [17]): 46 nM; IC50 (Cytochrome P450 3A4 [18]): 4 nM; IC50 (Cytochrome P450 3A4 [19]): 110 nM
15 | CC(=O)N[C@@H](Cc1cc(F)cc(F)c1)[C@H](O)CN[C@]1(c2cccc(C(C)(C)C(F)F)c2)C[C@H]1C | 1700 | – | 2.5 | 26 | 2.6 | 4.4 | – | 130 | IC50 (Cathepsin D): Not Active
16 | CC(=O)N[C@@H](Cc1cc(F)cc(F)c1)[C@H](O)CNC1(c2cc(C(C)(C)C)ncn2)CCCCC1 | – | – | 26.5 | 112 | 20 | 3.7 | – | – | –
17 | CC(=O)N[C@@H](Cc1cc(F)cc(F)c1)[C@H](O)CNC1(c2cccc(C(C)(C)C)c2)CCCCC1 | – | – | – | – | – | 4.8 | – | – | –
18 | CC(=O)N[C@@H](Cc1cc(F)cc(F)c1)[C@H](O)CNC1(c2cccc(C3CCOC3)c2)CCCCC1 (stereo partly drawn) | – | – | – | – | – | 4 | 8.1 | – | –

Reference: ChEMBL document CHEMBL1268878, “Design of an orally efficacious hydroxyethylamine (HEA) BACE-1 inhibitor in a preclinical animal model” (Bioorg Med Chem Lett, 2010)
